# In patent US20240390318A1, “PHARMACEUTICAL COMPOSITION COMPRISING CDK INHIBITOR AND ID2 ACTIVATOR FOR PREVENTION OR TREATMENT OF BLADDER CANCER” (THE ASAN FOUNDATION, priority 2021, published 2024):
# Columns and labels:
# [1] = test system: bladder cancer cell lines; assay: Cell proliferation by MTT assay; assay type: cell-based, human; conditions: for growth of BC cells: bladder cancer cell lines, apigenin with increasing dosage; for cell growth, proliferation: low concentrations, single or co-treatment
# Protocol: (§1) Human BC cell lines T24, 5637, HT1197, HT1376, and RT4 were cultured in Eagle's Minimum Essential (for HT1197 and HT1376), McCoy's 5a Medium Modified (for T24 and RT4), and RPMI-1640 (for […]) medium (ATCC, Manassas, VA, USA) including 10% heat-inactivated FBS (Hyclone, Pittsburgh, PA, USA) and penicillin/streptomycin (Cellgro, Pittsburgh, PA, USA). 40 μM apigenin (Sigma-Aldrich, Burlington, MA, USA), 4-hydroxychalcone (Sigma-Aldrich), and diosmetin (Sigma-Aldrich) were treated for 24 hours to activate ID2 expression, and 20 μM RO-3306 (Sigma-Aldrich) and CGP74514A (Sigma-Aldrich) were treated for 24 hours to inhibit CDK1 activity.
# (§2) The cell proliferation ability was determined by MTT assay (Sigma-Aldrich). Apoptosis was analyzed by annexin-V fluorescein isothiocyanate (FITC)/propidium iodide (PI) assay. Cells were subjected to trypsin, harvested, washed with PBS, resuspended in annexin-V binding buffer (10 mM HEPES, pH 7.4, 140 mM NaCl, 2.5 mM CaCl2)), and labeled with Annexin-V FITC and PI. FITC- and/or PI-labeled cell colonies were quantified by flow cytometry (Beckman Coulter, Brea, CA, USA).
# [2] = test system: bladder cancer cell lines; assay: Apoptosis by annexin-V FITC/PI flow cytometry; assay type: cell-based, human; conditions: for apoptosis of BC cells: bladder cancer cell lines, apigenin time-dependent treatment; for apoptosis of bladder cancer cells: low concentrations, single or co-treatment
# Protocol: as §1, §2
# [3] = test system: bladder cancer cell lines; assay: Tumor sphere formation; assay type: cell-based, human
# Protocol: To form tumor spheres, BC cells were resuspended in a single-cell suspension mixed with serum-free keratinocyte growth medium (Gibco, Waltham, MA, USA) and growth factor-reduced Matrigel (BD Biosciences, Mountain View, CA, USA) in a 1:1 ratio, and cultured on ultra-low attachment plates (Costar, Corning, NY, USA). The size of the tumor sphere was measured for 7 days after the first culture. For quantitative analysis, Image J software (National Institute of Mental Health, Bethesda, MD, USA) was used to measure the circumference of tumor sphere in eight representative regions randomly selected from each group.
# [4] = test system: ID2; assay: ID2 expression in bladder cancer cells (qPCR, Western blot); assay type: cell-based, human; conditions: HT1197 and HT1376 cells; ID2 activators 40 μM, CDK1 inhibitors 20 μM, 24 hours
# Protocol: as §1
# Real-time quantification PCR was used to perform quantitative analysis of gene expression. Total RNA was extracted using the QIAGEN RNeasy RNA isolation kit (QIAGEN, Valencia, CA, USA), and 50 ng of total RNA was reverse transcribed using Taqman Reverse Transcription Reagents (Applied Biosystems, Foster City, CA, USA). Threshold cycles (Ct) were used to determine the relative expression levels of target genes using the 2-DDCt method. The expression of GAPDH was used as an endogenous control gene.
# (§3) Cell extracts (30 μg) were prepared in RIPA lysis buffer (Santa Cruz Biotechnology) supplemented with a protease and phosphatase inhibitor cocktail (Roche, Indianapolis, IN, USA) and isolated in a 12% SDS-PAGE gel. An expression level of the labeled protein was assessed by probing with the following antibodies: ID2 (NBP-88630; Novusbio, Centennial, CO, USA), TFCP2L1 (OAAB09732; Aviva Systems Biology, San Diego, CA, USA), CDK1 (sc-54; Santa Cruz), PARP (9542; Cell Signaling), Cleaved Caspase-3 (9661; Cell Signaling), b-ACTIN (A5441; Sigma-Aldrich), and Flag-epitope (F3165; Sigma-Aldrich).
# [5] = test system: CDK1; assay: CDK1 protein expression in orthotopic xenograft bladder (immunofluorescence); assay type: in vivo, mice; conditions: HT1376 orthotopic xenograft; RO-3306 4 mg/kg alone or with apigenin 50 mg/kg i.p.
# Protocol: (§4) All animal experiments conducted in this experiment were carried out with the approval of the Institutional Animal Care Committee (IACUC-2020-12-209) of the University of Ulsan College of Medicine. 8-week-old male NOD/[…]) mice were purchased from GEM Biosciences Inc. (Cheongju, South Korea). 100 μl of 1.0×10^6 HT1376 BC cells were injected into the anterior wall of the bladder and the outer layer of the dome using a […] and a 26-gauge needle in the mice adapted for 1 week at the Animal Laboratory of Asan Medical Center, Seoul. Three weeks after orthotopic transplantation of BC cells, mice were injected intraperitoneally with RO-3306 (4 mg/kg) and apigenin (50 mg/kg), either alone or in combination, for 6 times at 4-day intervals. Mice and injection sites were monitored every 2 days for 45 days after the initial administration of BC cells. Tumor size was measured at the endpoint, and the tumor site was recovered by incision to perform histological examination or immunofluorescence assay. Mice were randomly assigned to the treatment group (N=5 or 10) and randomized to the sequence of cell transplantation, treatment, evaluation, and daily checkup. […] The stained samples were photographed using an inverted fluorescence microscope (EVOS FL Color Imaging System, Life Technologies).
# [6] = test system: HT1376 cells; assay: Orthotopic xenograft BC animal model, tumor size and histological examination; assay type: in vivo; conditions: NSG mice; for tumor growth suppression/inhibition: i.p. apigenin 50 mg/kg and/or RO-3306 4 mg/kg, 6 times at 4-day intervals
# Protocol: as §4, with “checkup. Investigations related to tumor size measurement and histological assessment were conducted as blind tests for the treatment group. For histological analysis, the bladder of xenograft mice was fixed with 4% paraformaldehyde for 1 day. After 24 hours of cryoprotection in 30% sucrose, each bladder was cut into 20 μm sections using cryostat (Leica, Lussloch, Germany) and stained with hematoxylin and eosin (H&E). For immunofluorescence (IF) staining, the bladder was stained with antibodies specific to ID2 (NBP-88630; Novusbio), TFCP2L1 (OAAB09732; Aviva Systems Biology), CDK1 (ab131450; Abcam, Cambridge, MA, USA), CD44 (ab78960; Abcam), and Cytokeratin 14 (KRT14; Ab7800).” for “checkup.”
# [7] = test system: ID2; assay: ID2 protein expression in orthotopic xenograft bladder (immunofluorescence); assay type: in vivo, mice; conditions: HT1376 orthotopic xenograft; RO-3306 4 mg/kg alone or with apigenin 50 mg/kg i.p.
# Protocol: as §4
# [8] = test system: bladder cancer cell lines; assay: Western blot of caspase-3 and PARP cleavage; assay type: cell-based, human; conditions: for cleavage of caspase-3 and PARP: low concentrations, single or co-treatment
# Protocol: as §1, §3
# [9] = test system: TFCP2L1; assay: TFCP2L1 protein expression in orthotopic xenograft bladder (immunofluorescence); assay type: in vivo, mice; conditions: HT1376 orthotopic xenograft; RO-3306 4 mg/kg alone or with apigenin 50 mg/kg i.p.
# Protocol: as §4
# [10] = test system: bladder cancer cell lines; assay: In vitro cell invasion (Transwell, Matrigel); assay type: cell-based, human
# Protocol: The upper chamber of the Transwell permeable support (Corning Inc, Corning, NY, USA) with an 8.0 μm pore polycarbonate membrane filter was coated with Matrigel (BD Biosciences) diluted in a 1:5 ratio. BC cells were loaded into the upper chamber at 2×10^4 cell/well concentrations in 100 μL of serum-free DMEM, and culture medium containing 3% FBS was filled into the lower chamber. Cell invasiveness was evaluated by culturing cells at 37° C. for 24 hours in a 5% CO2 incubator and then counting the number of cells that migrated to the bottom of the membrane. Three fields of view (magnification, ×200) were randomly selected from each transwell chamber for quantitative analysis.
Structure (SMILES),growth of BC cells [1],apoptosis of BC cells [2],tumor sphere forming ability [3],expression of ID2 at RNA and protein levels [4],expression of CDK1 protein [5],tumor growth suppression/inhibition [6] [%],"cell growth, proliferation [1]",expression level of ID2 protein [7],cleavage of caspase-3 and PARP [8],apoptosis of bladder cancer cells [2],expression of TFCP2L1 protein [9],"histological examination: therapeutic effect, size and progression of bladder cancer ([6]; i.p. 6 times at 4-day intervals)",invasiveness of BC cells [10],cleavage of caspase-3 and poly-(ADP-ribose) polymerase (PARP) ([8]; bladder cancer cell lines)
COc1ccc(-c2cc(=O)c3c(O)cc(O)cc3o2)cc1O [diosmetin],reduced bladder cancer cell growth,activated apoptosis,decreased tumor forming ability,,,,,,,,,,,
O=C(/C=C/c1ccc(O)cc1)c1ccccc1 [4-hydroxychalcone],reduced the growth of bladder cancer cells,activated apoptosis,tumor forming ability was reduced,increase in ID2 expression,,,,,,,,,,
CCn1cnc2c(Nc3cccc(Cl)c3)nc(N[C@@H]3CCCC[C@@H]3N)nc21 [CGP74514A],,,,increase in ID2 expression,,,,,,,,,,
O=C1NC(=NCc2cccs2)S/C1=C\c1ccc2ncccc2c1 [RO-3306],,,,increased,high,66.8±2.48,no significant effect,low,no significant effect,does not induce,high,,,
O=c1cc(-c2ccc(O)cc2)oc2cc(O)cc(O)c12 [apigenin],decreased significantly,activated,remarkably inhibit,increased,,74±6.13,no significant effect,,no significant effect,does not induce,,therapeutic effect of apigenin on bladder cancer regardless of tumor grade,remarkably inhibit,resulted in cleavage of caspase-3 and poly-(ADP-ribose) polymerase (PARP)
